# Measurements taken from US20240085425A1, “BIOMARKER AND APPLICATION THEREOF” (ADLAI NORTYE BIOPHARMA CO., LTD., priority 2022, published 2024).
# Tested on: Wnt pathway TCF/LEF
# Assay: Colo205-LUC-TCF/LEF luciferase reporter assay with or without MG132
# Assay type: cell-based
# Conditions: Colo205-LUC-TCF/LEF cells, 4 hours
# Method: The Colo205-LUC-TCF/LEF cell line is a reporter tool cell stably transfected with the pGL4.49-LUC2-TCF/LEF vector, and its Wnt/β-catenin pathway is continuously activated. After adding inhibitor, the expression of firefly luciferase regulated by the TCF/LEF cis-element decreased, and after adding the detection substrate, the detected light signal decreased accordingly, thus the inhibitory effect of the compound was detected.
# Add 100 μL of the compound AN10250484 at a maximum concentration of 20 μM to each well of the 96-well cell culture plate, and make a 3-fold gradient dilution of the compound concentration. Then inoculate each well with 10,000 stable Colo205-LUC-TCF/LEF cells containing 2 μM MG132 (Proteasome inhibitor) (MCE: HY-13259) or 10,000 Colo205-LUC-TCF/LEF cells containing control solvents, which were treated accordingly as positive and negative control wells. Place the cells in a 5% CO2 cell incubator and incubate at 37° C. for 4 hours. After 4 hours, remove the culture medium, add 100 μL of reagent (Promega) containing the corresponding firefly luciferase substrate to each well, and measure the luciferase reporter gene activity. Use SpectraMax to read the luminescence intensity in full-wavelength mode.
compound,measurement,setting,value
Cc1nc(C(F)(F)F)ncc1Oc1ccc(CNc2nc(C)c3c(n2)N(C)[C@@H](C)C(=O)N3)cn1 [AN10250484],Inhibitory effect of the compound on the transcription of TCF/LEF after adding MG132,"2 μM MG132, FIG. 2",significantly reduced
same,"Transcriptional activity of Wnt pathway TCF/LEF (luciferase reporter), in words","control solvent, FIG. 2",inhibiting Wnt pathway TCF/LEF
